Data on nine compounds can be found in ChEMBL document CHEMBL1201862, “PubChem BioAssay data set” (2004).

Test [1] deals with Metabotropic glutamate receptor 4 (Homo sapiens, UniProt Q14833). The test can be described thus: Modulation of the Metabotropic Glutamate Receptor mGluR4: Potency at human mGluR4. Modulation of intracellular Ca2+ using Fluo-4, AM, in CHO expressing recombinant receptor [Related pubchem assays (depositor defined):AID2437, AID2807]. Type of test: functional, cell-based.
Test [2] addresses Metabotropic glutamate receptor 4 (Rattus norvegicus, UniProt P31423). The test can be described thus: Modulation of the Metabotropic Glutamate Receptor mGluR4: Rat PAM Potency. [Related pubchem assays (depositor defined):AID2437, AID2807]. Type of test: functional.
Test [3] addresses T1, Voltage-dependent T-type calcium channel subunit alpha-1H (Homo sapiens, UniProt O95180). Type of test: functional.
The target of test [4] is T1, Voltage-dependent T-type calcium channel subunit alpha-1H. The test can be described thus: Inhibitors of T-Type Calcium Channels. [Related pubchem assays (depositor defined):AID449739, AID463087, AID489005, AID493041, AID504579, AID504584, AID504619, AID504628]. Type of test: functional.
Test [5] concerns HEK293. The test can be described thus: NOD1 signaling inhibitors, primary screen, cell-based, luminescence, uHTS (AID 1578). It is filed as functional. To be noted: Homo sapiens.
Test [6] concerns HEK293. The test is described as follows: cells. Type of test: functional, cell-based. The note with it: Homo sapiens.
Test [7] concerns HEK293. The test is described as follows: cells. It is filed as functional, cell-based. To be noted: Homo sapiens. The source holds these as a separate data set.
For test [8], the system named is HEK293. The test is described as follows: NOD2 signaling inhibitors in MDP-stimulated cells, cell-based, uHTS, luminescence (AID 2001). It is filed as functional. The note with it: Homo sapiens.
The target of a further test is Tumor necrosis factor (Homo sapiens, UniProt P01375). The test can be described thus: TNFa-triggered NF-kB activation inhibitors, SAR follow-up, cell-based, revised (AID 2337). It is filed as functional.
Test [9] has as its target T2, Nucleotide-binding oligomerization domain-containing protein 1 (Homo sapiens, UniProt Q9Y239).
T2 sequence (Q9Y239 whole entry): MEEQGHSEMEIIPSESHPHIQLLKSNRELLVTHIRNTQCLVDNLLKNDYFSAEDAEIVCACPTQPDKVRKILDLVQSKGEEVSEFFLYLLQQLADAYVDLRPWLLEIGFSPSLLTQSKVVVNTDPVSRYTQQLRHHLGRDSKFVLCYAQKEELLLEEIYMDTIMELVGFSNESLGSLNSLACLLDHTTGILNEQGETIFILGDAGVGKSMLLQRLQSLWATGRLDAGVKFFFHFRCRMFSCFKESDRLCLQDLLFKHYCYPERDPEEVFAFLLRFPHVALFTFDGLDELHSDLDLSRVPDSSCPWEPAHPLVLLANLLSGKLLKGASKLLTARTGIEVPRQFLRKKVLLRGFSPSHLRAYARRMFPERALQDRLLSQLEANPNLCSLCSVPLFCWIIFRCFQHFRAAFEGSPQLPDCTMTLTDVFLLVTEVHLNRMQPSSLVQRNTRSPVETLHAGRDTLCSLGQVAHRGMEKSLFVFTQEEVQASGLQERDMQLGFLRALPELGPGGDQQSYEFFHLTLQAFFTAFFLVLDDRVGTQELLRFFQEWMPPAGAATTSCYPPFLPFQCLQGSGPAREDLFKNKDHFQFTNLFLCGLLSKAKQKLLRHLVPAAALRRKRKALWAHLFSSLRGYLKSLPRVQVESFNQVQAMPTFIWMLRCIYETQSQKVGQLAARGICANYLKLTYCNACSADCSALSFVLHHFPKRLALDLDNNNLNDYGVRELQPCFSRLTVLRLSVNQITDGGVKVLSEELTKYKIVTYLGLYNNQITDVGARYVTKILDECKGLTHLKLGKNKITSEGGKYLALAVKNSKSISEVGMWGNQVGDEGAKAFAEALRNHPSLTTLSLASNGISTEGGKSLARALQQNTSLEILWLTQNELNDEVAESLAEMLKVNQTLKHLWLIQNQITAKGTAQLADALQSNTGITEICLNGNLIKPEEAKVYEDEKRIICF
The test can be described thus: NOD1 signaling inhibitors, SAR follow-up, revised (AID 2333). It is filed as functional.

Test [10] deals with Nucleotide-binding oligomerization domain-containing protein 2 (Homo sapiens, UniProt Q9HC29). The test is described as follows: PubChem AID 2334. It is filed as functional.
For test [11], the system named is HEK293. The test can be described thus: cells. To be noted: Homo sapiens.
A further test deals with Large T antigen (Simian virus 40, UniProt P03070). Type of test: functional, Betapolyomavirus macacae.
Test [12] in a line: inhibition of K1F phage lysis, E. coli UTI89, bacterial capsule biogenesis inhibitors, alamar blue (AID 488966). It is filed as functional. (In general: Alamar Blue is a resazurin reagent that responds to reducing activity.)
In another test the target is X-box-binding protein 1 (Homo sapiens, UniProt P17861). Type of test: functional, Cricetulus griseus.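 Further: confirmatory dose-response counter-screen serving a CHOP assay.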
The target of test [13] is T3, Dual specificity protein phosphatase 3 (Homo sapiens, UniProt P51452). The test is described as follows: SAR VHR1 absorbance Assay for In Vitro dose response studies. [Related pubchem assays (depositor defined):AID1654, AID1661, AID1878, AID1992, AID2004].
T3 sequence (P51452 whole entry): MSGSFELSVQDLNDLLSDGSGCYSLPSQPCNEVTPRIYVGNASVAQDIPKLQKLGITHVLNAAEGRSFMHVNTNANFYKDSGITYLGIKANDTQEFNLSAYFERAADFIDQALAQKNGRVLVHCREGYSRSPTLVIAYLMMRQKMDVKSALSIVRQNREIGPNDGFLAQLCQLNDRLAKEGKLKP
In test [14] the target is T3, Dual specificity protein phosphatase 3. The test is described as follows: SAR VHR1 Fluorescent Assay for In Vitro dose response studies. [Related pubchem assays (depositor defined):AID1654, AID1661, AID1878, AID1992, AID2004, AID2070, AID2085]. It is filed as functional.
For test [15], the target named is T4, Tyrosine-protein phosphatase non-receptor type 7 (Homo sapiens, UniProt P35236).
T4 sequence (P35236 whole entry): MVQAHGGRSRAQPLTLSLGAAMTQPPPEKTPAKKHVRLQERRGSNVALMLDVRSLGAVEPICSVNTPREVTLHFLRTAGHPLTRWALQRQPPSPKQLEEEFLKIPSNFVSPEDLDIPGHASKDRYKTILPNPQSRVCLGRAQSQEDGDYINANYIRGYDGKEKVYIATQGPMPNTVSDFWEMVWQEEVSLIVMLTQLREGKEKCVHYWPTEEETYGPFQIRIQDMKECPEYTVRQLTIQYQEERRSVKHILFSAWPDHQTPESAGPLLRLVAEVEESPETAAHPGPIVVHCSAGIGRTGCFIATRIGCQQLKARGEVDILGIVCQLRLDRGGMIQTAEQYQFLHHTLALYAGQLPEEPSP
The test can be described thus: redox-dependent HePTP inhibition, mechanism study, biochemical, fluorescence (AID 2068). Type of test: functional.

The target in test [16] is T5, Dual specificity protein phosphatase 6 (Rattus norvegicus, UniProt Q64346).
T5 sequence (Q64346 whole entry): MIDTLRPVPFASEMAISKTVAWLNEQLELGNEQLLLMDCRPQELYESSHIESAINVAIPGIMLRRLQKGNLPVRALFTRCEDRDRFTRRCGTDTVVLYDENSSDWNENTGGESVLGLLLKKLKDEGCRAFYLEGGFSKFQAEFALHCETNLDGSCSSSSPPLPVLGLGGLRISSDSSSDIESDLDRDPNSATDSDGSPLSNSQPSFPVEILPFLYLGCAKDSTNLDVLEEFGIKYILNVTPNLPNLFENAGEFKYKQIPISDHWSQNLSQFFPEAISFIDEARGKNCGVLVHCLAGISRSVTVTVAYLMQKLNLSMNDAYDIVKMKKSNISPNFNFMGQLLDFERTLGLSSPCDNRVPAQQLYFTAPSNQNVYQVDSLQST
It is filed as functional.

Test [17] concerns the target Melanin-concentrating hormone receptor 1 (Homo sapiens, UniProt Q99705). The test is described as follows: Late-stage fluorescence-based counterscreen for antagonists of the G-protein coupled receptor 7 (GPR7): cell-based dose response assay to identify antagonists of the melanin-concentrating hormone receptor 1 (MCHR1). [Related pubchem assays (depositor defined):AID1861, AID1880, AID1952, AID2148, AID2251, AID2257, AID485339]. It is filed as functional. A general note: A counterscreen serves to expose hits that act by an unwanted route or on another target.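 Further: stimulated with 30 nM MCH peptide agonist.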

Test [18] deals with Neuropeptides B/W receptor type 1 (Homo sapiens, UniProt P48145). The test is described as follows: GPR7 antagonist potency, late-stage follow-up, cell-based, fluorescence, dose response (AID 463251). It is filed as functional.
Chain of Neuropeptides B/W receptor type 1 (P48145 whole entry): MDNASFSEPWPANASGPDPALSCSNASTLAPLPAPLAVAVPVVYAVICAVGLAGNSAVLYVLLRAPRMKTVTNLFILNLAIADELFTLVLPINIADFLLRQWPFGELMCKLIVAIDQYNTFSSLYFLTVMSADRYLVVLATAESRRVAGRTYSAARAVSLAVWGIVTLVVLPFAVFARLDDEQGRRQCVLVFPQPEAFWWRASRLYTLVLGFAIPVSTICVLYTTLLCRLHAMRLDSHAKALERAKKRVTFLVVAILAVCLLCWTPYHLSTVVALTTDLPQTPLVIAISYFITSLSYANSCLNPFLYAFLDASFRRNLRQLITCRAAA
Test [19] addresses T4, Tyrosine-protein phosphatase non-receptor type 7. Type of test: functional.
The target of a further test is Bcl-2-like protein 10 (Homo sapiens, UniProt Q9HD36). The test is described as follows: displacers of TR3 peptide from Bcl-B, primary screen, selectivity assay for Bfl-1 inhibitor project, biochemical, fluorescence polarization, FITC-TR3 peptide (AID 748).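 Further: fluorescence polarization from a fluorescein-labelled TR3 peptide binding purified Bcl-B.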
Chain of Bcl-2-like protein 10 (Q9HD36 whole entry): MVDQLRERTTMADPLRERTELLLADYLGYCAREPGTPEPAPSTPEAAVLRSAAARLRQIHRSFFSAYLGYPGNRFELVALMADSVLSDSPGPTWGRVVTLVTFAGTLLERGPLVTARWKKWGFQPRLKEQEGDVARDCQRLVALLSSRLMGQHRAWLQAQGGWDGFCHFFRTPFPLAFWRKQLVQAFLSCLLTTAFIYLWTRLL
Test [20] addresses Glyceraldehyde-3-phosphate dehydrogenase (Homo sapiens, UniProt P04406).
A further test addresses T6, Estrogen receptor (Homo sapiens, UniProt P03372).
T6 sequence (P03372 whole entry): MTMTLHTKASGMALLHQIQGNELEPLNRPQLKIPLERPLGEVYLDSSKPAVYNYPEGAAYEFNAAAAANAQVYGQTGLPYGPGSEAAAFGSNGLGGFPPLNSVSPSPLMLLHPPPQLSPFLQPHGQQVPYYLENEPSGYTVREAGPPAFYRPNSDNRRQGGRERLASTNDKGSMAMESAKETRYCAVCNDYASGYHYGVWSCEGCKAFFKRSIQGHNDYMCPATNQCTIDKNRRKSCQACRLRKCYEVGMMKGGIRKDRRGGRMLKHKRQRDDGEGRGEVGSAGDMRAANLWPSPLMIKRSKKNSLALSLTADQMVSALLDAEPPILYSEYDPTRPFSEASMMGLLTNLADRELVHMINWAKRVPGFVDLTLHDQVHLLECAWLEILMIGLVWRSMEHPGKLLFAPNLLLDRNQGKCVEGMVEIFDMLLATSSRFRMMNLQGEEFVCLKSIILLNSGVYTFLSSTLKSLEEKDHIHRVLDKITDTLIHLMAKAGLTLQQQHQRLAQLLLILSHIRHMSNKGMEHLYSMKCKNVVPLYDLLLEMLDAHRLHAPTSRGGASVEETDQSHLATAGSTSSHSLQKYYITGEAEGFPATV

The target of test [21] is T7, Estrogen receptor beta (Homo sapiens, UniProt Q92731).
T7 sequence (Q92731 whole entry): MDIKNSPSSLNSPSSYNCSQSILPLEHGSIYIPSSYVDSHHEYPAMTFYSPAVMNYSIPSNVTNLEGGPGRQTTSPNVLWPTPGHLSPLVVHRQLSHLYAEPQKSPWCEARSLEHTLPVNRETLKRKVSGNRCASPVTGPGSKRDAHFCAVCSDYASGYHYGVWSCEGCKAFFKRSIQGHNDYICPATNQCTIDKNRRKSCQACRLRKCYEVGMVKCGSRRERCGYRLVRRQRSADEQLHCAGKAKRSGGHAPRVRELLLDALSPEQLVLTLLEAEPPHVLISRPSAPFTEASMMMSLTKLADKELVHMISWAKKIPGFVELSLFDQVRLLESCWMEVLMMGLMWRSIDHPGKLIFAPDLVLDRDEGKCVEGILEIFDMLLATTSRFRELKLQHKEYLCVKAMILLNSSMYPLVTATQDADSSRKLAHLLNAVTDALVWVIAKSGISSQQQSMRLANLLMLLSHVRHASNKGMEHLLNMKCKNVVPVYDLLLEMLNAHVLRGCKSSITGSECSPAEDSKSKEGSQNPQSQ
Test [22] concerns the target T7, Estrogen receptor beta. The test can be described thus: ERβ–SRC-3 coactivator interaction inhibitors, confirmation, orthogonal assay, biochemical, ELISA, streptavidin-HRP readout (AID 1060). Background: ELISA stands for enzyme-linked immunosorbent assay.
Test [23] deals with T5, Dual specificity protein phosphatase 6.
In a further test the target is Ephrin type-A receptor 4 (Mus musculus, UniProt Q03137). The test can be described thus: inhibitors of EphA4 binding to KYL peptide, primary screen, biochemical, colorimetric, mouse EphA4 (AID 689). Type of test: functional.
The target in test [24] is T5, Dual specificity protein phosphatase 6. The test is described as follows: MKP-3 phosphatase inhibitors, primary screen, biochemical, rat enzyme, in vitro (AID 425).
Test [25] addresses Induced myeloid leukemia cell differentiation protein Mcl-1 (Homo sapiens, UniProt Q07820). Type of test: functional.
Test [26] concerns the target NACHT, LRR and PYD domains-containing protein 3 (Homo sapiens, UniProt Q96P20). The test is described as follows: NALP3 inhibitors in yeast, dose response, luminescent (AID 488799). It is filed as functional.
Test [27] addresses Multidrug resistance protein CDR1 (Candida albicans, UniProt P43071). The test is described as follows: CaCDR1 efflux pump inhibitors in yeast, dose response, S. cerevisiae AD1-8u, singleplex, Cherry Pick1 hits (AID 588606). It is filed as functional.

Active and inactive are the calls of the source.

T1 sequence (O95180 whole entry): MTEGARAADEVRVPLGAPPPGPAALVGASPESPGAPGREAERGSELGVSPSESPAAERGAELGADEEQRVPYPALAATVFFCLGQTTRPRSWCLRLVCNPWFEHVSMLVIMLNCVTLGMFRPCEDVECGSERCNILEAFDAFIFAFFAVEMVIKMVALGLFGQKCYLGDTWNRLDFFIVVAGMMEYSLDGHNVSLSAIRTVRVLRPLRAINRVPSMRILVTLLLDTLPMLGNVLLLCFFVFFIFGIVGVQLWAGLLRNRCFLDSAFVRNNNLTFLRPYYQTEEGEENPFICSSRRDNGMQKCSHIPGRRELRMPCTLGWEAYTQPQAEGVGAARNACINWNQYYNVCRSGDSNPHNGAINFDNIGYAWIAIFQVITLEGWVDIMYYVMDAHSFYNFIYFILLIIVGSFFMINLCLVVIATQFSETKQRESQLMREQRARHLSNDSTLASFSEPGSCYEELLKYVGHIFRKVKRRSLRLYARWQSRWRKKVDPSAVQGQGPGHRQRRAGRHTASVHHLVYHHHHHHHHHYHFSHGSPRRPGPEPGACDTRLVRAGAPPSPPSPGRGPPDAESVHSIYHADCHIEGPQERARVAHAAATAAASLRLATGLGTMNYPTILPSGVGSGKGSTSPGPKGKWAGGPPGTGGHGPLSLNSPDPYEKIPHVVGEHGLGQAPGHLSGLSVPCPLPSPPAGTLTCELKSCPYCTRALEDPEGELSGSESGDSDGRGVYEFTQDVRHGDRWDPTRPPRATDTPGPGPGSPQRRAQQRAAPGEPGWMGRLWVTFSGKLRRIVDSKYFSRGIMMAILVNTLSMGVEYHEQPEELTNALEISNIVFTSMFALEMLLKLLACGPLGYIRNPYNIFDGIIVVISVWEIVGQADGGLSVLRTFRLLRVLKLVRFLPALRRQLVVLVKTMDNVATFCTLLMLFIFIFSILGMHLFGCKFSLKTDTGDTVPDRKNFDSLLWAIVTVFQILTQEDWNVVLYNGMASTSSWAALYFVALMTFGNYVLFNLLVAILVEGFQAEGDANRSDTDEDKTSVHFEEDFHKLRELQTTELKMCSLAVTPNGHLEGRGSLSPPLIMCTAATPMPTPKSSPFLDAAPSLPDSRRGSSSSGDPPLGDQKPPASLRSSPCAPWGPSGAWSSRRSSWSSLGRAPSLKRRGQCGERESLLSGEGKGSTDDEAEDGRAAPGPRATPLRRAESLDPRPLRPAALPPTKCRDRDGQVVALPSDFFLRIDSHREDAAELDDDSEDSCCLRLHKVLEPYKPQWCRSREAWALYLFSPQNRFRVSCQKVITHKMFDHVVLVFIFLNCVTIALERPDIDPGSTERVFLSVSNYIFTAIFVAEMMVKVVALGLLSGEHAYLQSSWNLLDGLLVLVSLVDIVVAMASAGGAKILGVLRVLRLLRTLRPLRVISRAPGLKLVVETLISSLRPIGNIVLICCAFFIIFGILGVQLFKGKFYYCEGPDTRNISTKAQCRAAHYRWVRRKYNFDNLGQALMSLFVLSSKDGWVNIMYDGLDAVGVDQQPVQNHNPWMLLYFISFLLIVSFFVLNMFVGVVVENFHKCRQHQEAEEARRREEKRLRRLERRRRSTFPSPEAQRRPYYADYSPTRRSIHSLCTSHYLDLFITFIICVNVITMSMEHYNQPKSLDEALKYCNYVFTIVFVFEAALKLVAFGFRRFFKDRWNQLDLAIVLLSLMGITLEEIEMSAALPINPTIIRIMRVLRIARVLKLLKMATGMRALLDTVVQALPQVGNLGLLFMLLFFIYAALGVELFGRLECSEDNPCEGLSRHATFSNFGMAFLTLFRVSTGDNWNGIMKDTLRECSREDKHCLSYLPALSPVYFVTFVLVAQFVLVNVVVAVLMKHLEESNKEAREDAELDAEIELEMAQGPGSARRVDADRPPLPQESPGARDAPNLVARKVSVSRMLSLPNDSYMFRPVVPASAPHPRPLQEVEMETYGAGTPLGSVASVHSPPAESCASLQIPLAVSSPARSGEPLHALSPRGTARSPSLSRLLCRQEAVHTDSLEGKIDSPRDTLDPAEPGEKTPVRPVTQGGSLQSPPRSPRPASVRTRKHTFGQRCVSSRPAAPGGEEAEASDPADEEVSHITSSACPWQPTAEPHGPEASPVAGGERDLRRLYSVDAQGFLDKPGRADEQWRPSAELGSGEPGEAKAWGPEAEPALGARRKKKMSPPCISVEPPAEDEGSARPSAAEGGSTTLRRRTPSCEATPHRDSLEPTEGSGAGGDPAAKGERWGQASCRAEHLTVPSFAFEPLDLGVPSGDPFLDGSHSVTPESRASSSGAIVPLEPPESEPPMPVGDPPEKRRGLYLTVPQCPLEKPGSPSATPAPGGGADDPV
Chain of Multidrug resistance protein CDR1 (P43071 whole entry, looked up): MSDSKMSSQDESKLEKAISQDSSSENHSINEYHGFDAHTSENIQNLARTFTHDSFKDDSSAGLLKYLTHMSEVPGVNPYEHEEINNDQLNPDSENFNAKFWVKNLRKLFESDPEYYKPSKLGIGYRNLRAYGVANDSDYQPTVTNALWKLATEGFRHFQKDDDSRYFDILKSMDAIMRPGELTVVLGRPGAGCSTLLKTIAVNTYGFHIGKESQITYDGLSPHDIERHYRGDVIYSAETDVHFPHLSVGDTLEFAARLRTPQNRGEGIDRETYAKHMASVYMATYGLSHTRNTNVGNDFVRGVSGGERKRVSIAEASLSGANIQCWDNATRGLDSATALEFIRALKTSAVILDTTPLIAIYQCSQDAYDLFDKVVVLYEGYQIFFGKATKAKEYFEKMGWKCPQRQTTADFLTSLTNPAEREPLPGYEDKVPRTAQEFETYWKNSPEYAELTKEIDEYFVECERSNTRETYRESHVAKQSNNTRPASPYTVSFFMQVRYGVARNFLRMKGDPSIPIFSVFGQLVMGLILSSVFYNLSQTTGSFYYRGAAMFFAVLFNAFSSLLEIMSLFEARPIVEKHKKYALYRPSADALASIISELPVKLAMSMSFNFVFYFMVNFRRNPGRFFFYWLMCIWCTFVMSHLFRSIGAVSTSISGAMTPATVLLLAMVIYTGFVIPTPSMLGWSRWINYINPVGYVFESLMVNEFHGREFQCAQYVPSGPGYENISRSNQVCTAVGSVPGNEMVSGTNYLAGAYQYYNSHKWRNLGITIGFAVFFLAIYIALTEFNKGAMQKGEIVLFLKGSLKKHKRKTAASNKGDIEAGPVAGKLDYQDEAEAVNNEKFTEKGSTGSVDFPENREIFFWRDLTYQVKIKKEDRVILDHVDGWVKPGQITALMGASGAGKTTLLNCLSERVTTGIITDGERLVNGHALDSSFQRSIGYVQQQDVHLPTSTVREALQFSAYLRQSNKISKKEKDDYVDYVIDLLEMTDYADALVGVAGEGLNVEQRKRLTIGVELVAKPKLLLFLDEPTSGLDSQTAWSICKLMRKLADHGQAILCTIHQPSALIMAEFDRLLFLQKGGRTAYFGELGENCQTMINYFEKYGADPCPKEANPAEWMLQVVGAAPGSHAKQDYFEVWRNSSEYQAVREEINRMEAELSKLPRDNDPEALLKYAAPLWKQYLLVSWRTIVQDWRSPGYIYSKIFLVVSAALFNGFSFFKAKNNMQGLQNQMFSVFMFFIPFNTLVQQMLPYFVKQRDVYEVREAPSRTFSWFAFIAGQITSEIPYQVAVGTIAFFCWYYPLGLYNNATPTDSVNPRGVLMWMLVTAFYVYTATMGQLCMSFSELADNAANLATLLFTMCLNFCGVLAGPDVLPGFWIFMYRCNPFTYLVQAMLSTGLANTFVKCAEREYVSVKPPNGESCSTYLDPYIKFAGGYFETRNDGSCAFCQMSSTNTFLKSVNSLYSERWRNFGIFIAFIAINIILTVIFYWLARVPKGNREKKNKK

By EC50 is commonly meant the concentration that produces a half-maximal response. As for `CC1(C)CC(=O)N(c2ccc(NC(=O)c3ccccn3)cc2Cl)C1=O`, the EC50 was 1.48 µM (active) in [1] and 2.32 µM (active) in test [2].

In the case of `O=C(Nc1ccccc1)c1ccccc1NS(=O)(=O)c1ccc(Cl)s1`, the figures for the 50% effective concentration (EC50) in test [3] and in [4] were 1.05 µM (active) and 0.808 µM (active), respectively.

By IC50 is commonly meant the concentration at which inhibition is half-maximal. Take `CC1CCc2c(sc(NC(=O)c3cccs3)c2C(=O)O)C1` (centres undefined): the EC50 in the test with HEK293 [5] is > 20 µM (inactive). Also, the IC50 (in the test on HEK293 [6]; with HEK293 [7]; in the test with HEK293 [8]; on Tumor necrosis factor; in [9]; in [10]) was > 20 µM (inactive) throughout. For the same compound, the IC50 in the test with HEK293 [11] is > 20 µM (inactive).

Consider `COc1ccc(NC2SC(=O)N(C)C2=O)cc1` (centres undefined), for which the IC50 at Large T antigen is 80.8 µM (active); in [12], > 300 µM (active).

Consider `Cc1ccc(-c2ccc(/C=C(\C#N)C(=O)Nc3cc(C)nn3-c3ccccc3)o2)cc1`, for which the “Absolute IC50 (XBP1)” value at X-box-binding protein 1 was 10 µM.

`S=C(NCc1ccccc1)c1cn(CCOc2ccccc2)c2ccccc12`: the IC50 in test [13], in [14], in [15] and in test [16] was > 100 µM (inactive) in each case.

Regarding `CC(=O)OCc1ccc(Oc2c(Cl)cnn(-c3ccc(C(C)C)cc3)c2=O)cc1`, the half-maximal inhibitory concentration (IC50) in test [17] was 3.5 µM (active); in [18], 1.6 µM (active).

Turning to `COc1ccc(N2Cc3cccc(C(=O)O)c3C2=O)cc1`, the half-inhibitory concentration (IC50) in [19] was > 100 µM (not active); at Bcl-2-like protein 10, 4.06 µM (active); in test [20] it was > 100 µM (not active); at Estrogen receptor it was 12 µM (active); on Estrogen receptor beta [21], 2.15 µM (active); against Estrogen receptor beta [22] it was 0.704 µM (not active). Moreover, the IC50 in test [23] is > 100 µM (inactive); on Ephrin type-A receptor 4, 9.05 µM (active); in [24], > 10 µM (not active); in test [25], 4.43 µM (active); in test [16], > 100 µM (inactive).

Consider `CCC1Nc2ncnc(N3CCN(c4ccccn4)CC3)c2N(Cc2ccc(Br)cc2)C1=O` (centres undefined), for which, in test [26], the IC50 was 3.71 µM (active). For the same compound, in test [27], the EC50 is 12.4 µM (active).
